Drawing on US11759461B2, “Small molecule inhibitors of cancer stem cells and mesenchymal cancer types” (The Scripps Research Institute, priority 2017, dated 2023), this text covers IC50 for 66 compounds.

The assay relates to FOXC2-expressing HMLER cells. Description: Cell Titer Glo viability of FOXC2-HMLER cells (high throughput screen and 10-point response). Type of assay: cell-based. As to conditions: Homo sapiens; scored relative to parent compound 2; 72 hours; read-out: Activity Score, inhibition of FOXC2-expressing HMLER cells by Formula II compounds. How it is done:
For high throughput screening, FOXC2-HMLER and HMLER cells were plated at 10^3 cells per well in white 384-well plates in 50 μL of MEGM medium (Lonza). Cells were allowed to attach for one hour before compound was transferred to each well as a DMSO solution using a 100 nL pintool head affixed to a PerkinElmer FX instrument. After 72-hour incubation, 30 μL of a Cell Titer Glo solution (diluted 1:6 in water, Promega) was dispensed into each well and luminance values were recorded using an Envision plate reader. […] All other miniaturized, selective viability experiments were performed as above using the indicated growth medium.
More specifically, in the high throughput screening assay above, each cell line was plated at 1,000 cells per well in 384-well plates, treated for 72 hours with 2 μM of test compound, and the viability of each line was determined in parallel by Cell Titer Glo (Promega) luminance measurements.
As for `CCOC(=O)c1cccc(NC(=O)Cn2c(=O)c(CNc3ccccc3)cc3ccc(OC)cc32)c1` [Compound 2BG], the IC50 is over 20 µM.
In the case of `COc1ccc2cc(CNc3ccccc3)c(=O)n(CC(=O)Nc3ccc(F)cc3)c2c1` [Compound 2BH] it was over 20 µM; in that of `COc1ccc(CNC(=O)Cn2c(=O)c(CNc3ccccc3)cc3ccc(OC)cc32)cc1` [Compound 2BI], over 20 µM; in that of `COc1ccc2cc(CNc3ccc(C)cc3)c(=O)n(CC(=O)Nc3cc(C)cc(C)c3)c2c1` [Compound 2BJ], over 20 µM.
In the case of `COc1ccc(NCc2cc3ccc(OC)cc3n(CC(=O)Nc3ccc(F)cc3)c2=O)cc1` [Compound 2BK], the IC50 is over 20 µM.
`CCc1ccccc1NC(=O)Cn1c(=O)c(CNc2ccccc2)cc2ccc(OC)cc21` [Compound 2BL]: the IC50 is over 20 µM.
Next, `COc1ccc(NCc2cc3ccc(C)cc3n(CC(=O)Nc3cccc(C)c3)c2=O)cc1OC` [Compound 2BM]: over 20 µM; `CCc1ccc(NC(=O)Cn2c(=O)c(CNc3ccccc3)cc3ccc(OC)cc32)cc1` [Compound 2BN]: over 20 µM; `COc1ccc(NCc2cc3cc4c(cc3n(CC(=O)Nc3ccccc3C)c2=O)OCCO4)cc1` [Compound 2BO]: over 20 µM.
In the case of `COc1ccc(NCc2cc3cc4c(cc3n(CC(=O)Nc3ccc(C)cc3)c2=O)OCCO4)cc1` [Compound 2BP], the IC50 was over 20 µM.
With `COc1ccc(NC(=O)Cn2c(=O)c(CNc3ccc(C)cc3)cc3cc(OC)c(OC)cc32)cc1` [Compound 2BQ], the IC50 was over 20 µM.
Next, `COc1ccc2cc(CNc3ccccc3)c(=O)n(CC(=O)Nc3cccc(F)c3)c2c1` [Compound 2BR]: over 20 µM; `COc1ccc2cc(CNc3ccccc3)c(=O)n(CC(=O)Nc3cc(Cl)ccc3OC)c2c1` [Compound 2BS]: over 20 µM.
In the case of `CCc1ccc(NCc2cc3ccc(OC)cc3n(CC(=O)Nc3cccc(Cl)c3)c2=O)cc1` [Compound 2BT] it was over 20 µM.
Next, `COc1cccc(NC(=O)Cn2c(=O)c(CNc3ccc(C)cc3)cc3cc(OC)c(OC)cc32)c1` [Compound 2BU]: over 20 µM.
`COc1ccc(NCc2cc3ccc(OC)cc3n(CC(=O)Nc3ccccc3C)c2=O)cc1` [Compound 2BV]: the IC50 is over 20 µM.
Next, `COc1ccc2cc(CNc3ccccc3)c(=O)n(CC(=O)Nc3ccc(Br)cc3)c2c1` [Compound 2BW]: over 20 µM; `COc1ccc2cc(CNc3ccccc3)c(=O)n(CC(=O)Nc3cccc(Cl)c3)c2c1` [Compound 2BX]: over 20 µM.
On to `COc1cccc(NC(=O)Cn2c(=O)c(CNc3ccccc3)cc3cc4c(cc32)OCCO4)c1` [Compound 2BY], for which the IC50 is over 20 µM.
In the case of `COc1ccc2cc(CNc3ccc(C)cc3)c(=O)n(CC(=O)Nc3cccc(C(F)(F)F)c3)c2c1` [Compound 2BZ] it was over 20 µM.
On to `CCOc1ccccc1NC(=O)Cn1c(=O)c(CNc2ccc(CC)cc2)cc2ccc(OC)cc21` [Compound 2B], for which the IC50 is under 1 µM.
For `COc1ccc2cc(CNc3ccccc3)c(=O)n(CC(=O)Nc3ccc(Cl)cc3)c2c1` [Compound 2CA], the IC50 was over 20 µM.
In the case of `COc1cc2cc(CNc3ccccc3)c(=O)n(CC(=O)Nc3ccc(C)cc3C)c2cc1OC` [Compound 2CB] it was over 20 µM; in that of `COc1ccc2cc(CNc3ccccc3)c(=O)n(CC(=O)Nc3cc(Cl)ccc3C)c2c1` [Compound 2CC], over 20 µM; in that of `Cc1ccc(NCc2cc3cc4c(cc3n(CC(=O)Nc3cc(C)ccc3C)c2=O)OCCO4)cc1` [Compound 2CD], over 20 µM.
In the case of `COc1ccc2cc(CNc3ccc(C)cc3)c(=O)n(CC(=O)Nc3ccc4c(c3)OCCO4)c2c1` [Compound 2CE] it was over 20 µM.
In the case of `CCc1ccc(NCc2cc3cc(OC)c(OC)cc3n(CC(=O)Nc3ccccc3)c2=O)cc1` [Compound 2CF] it was over 20 µM.
Take `COc1cc2cc(CNc3ccccc3)c(=O)n(CC(=O)Nc3ccc(F)cc3)c2cc1OC` [Compound 2CG]: the IC50 is over 20 µM.
Next, `CCc1cccc(NC(=O)Cn2c(=O)c(CNc3ccccc3)cc3ccc(OC)cc32)c1` [Compound 2CH]: over 20 µM; `CCc1ccc(NCc2cc3cc4c(cc3n(CC(=O)Nc3ccc(CC)cc3)c2=O)OCCO4)cc1` [Compound 2CI]: over 20 µM.
In the case of `COc1cc2cc(CNc3ccc(C)cc3)c(=O)n(CC(=O)Nc3ccc(C(C)C)cc3)c2cc1OC` [Compound 2CJ] it was over 20 µM; in that of `COc1ccc2cc(CNc3ccccc3)c(=O)n(CC(=O)Nc3ccc(C)c(C)c3)c2c1` [Compound 2CK], over 20 µM.
For the compound `CCc1ccc(NC(=O)Cn2c(=O)c(CNc3ccccc3)cc3cc(OC)c(OC)cc32)cc1` [Compound 2CL], the IC50 is over 20 µM.
Take `COc1ccc(OC)c(NC(=O)Cn2c(=O)c(CNc3ccccc3)cc3ccc(C)cc32)c1` [Compound 2CM]: the IC50 was over 20 µM.
With `COc1cccc(NC(=O)Cn2c(=O)c(CNc3ccccc3)cc3cc(OC)c(OC)cc32)c1` [Compound 2CN], the IC50 was over 20 µM.
Next, `COc1ccc2cc(CNc3ccccc3)c(=O)n(CC(=O)Nc3ccc(C)c(Cl)c3)c2c1` [Compound 2CO]: over 20 µM.
For `CCc1ccc(NCc2cc3ccc(OC)cc3n(CC(=O)Nc3ccccc3C)c2=O)cc1` [Compound 2CP], the IC50 is over 20 µM.
Take `CCOc1ccc(NC(=O)Cn2c(=O)c(CNc3ccccc3)cc3ccc(C)cc32)cc1` [Compound 2CQ]: the IC50 is over 20 µM.
Next, `COc1ccc(NC(=O)Cn2c(=O)c(CNc3ccc(C)cc3)cc3cc4c(cc32)OCCO4)cc1` [Compound 2CR]: over 20 µM.
Next, `COc1ccc2cc(CNc3ccccc3)c(=O)n(CC(=O)Nc3ccccc3OC)c2c1` [Compound 2CS]: over 20 µM; `CCc1ccc(NCc2cc3ccc(OC)cc3n(CC(=O)Nc3ccc(C)c(C)c3)c2=O)cc1` [Compound 2CT]: over 20 µM; `CCc1ccc(NC(=O)Cn2c(=O)c(CNc3ccc(C)cc3)cc3ccc(OC)cc32)cc1` [Compound 2CU]: over 20 µM.
In the case of `CCOc1ccc(NC(=O)Cn2c(=O)c(CNc3ccc(OC)cc3)cc3ccc(OC)cc32)cc1` [Compound 2CV] it was over 20 µM; in that of `CCc1ccc(NCc2cc3ccc(OC)cc3n(CC(=O)Nc3ccc(CC)cc3)c2=O)cc1` [Compound 2CW], over 20 µM; in that of `COc1ccc2cc(CNc3ccccc3)c(=O)n(CC(=O)Nc3ccc(C(C)=O)cc3)c2c1` [Compound 2CX], over 20 µM.
Consider `COc1cc(NC(=O)Cn2c(=O)c(CNc3ccc(C)cc3)cc3ccc(OC)cc32)cc(OC)c1` [Compound 2CY], for which the IC50 was over 20 µM.
In the case of `COc1cc2cc(CNc3ccccc3)c(=O)n(CC(=O)Nc3ccccc3C)c2cc1OC` [Compound 2CZ] it was over 20 µM; in that of `CCOC(=O)c1ccccc1NC(=O)Cn1c(=O)c(CNc2ccccc2)cc2ccc(OC)cc21` [Compound 2C], under 1 µM; in that of `Cc1ccc(NCc2cc3cc4c(cc3n(CC(=O)Nc3ccccc3)c2=O)OCCO4)cc1` [Compound 2DA], over 20 µM.
Regarding `COc1ccc2cc(CNc3ccccc3)c(=O)n(CC(=O)Nc3ccccc3Cl)c2c1` [Compound 2DB], the IC50 is over 20 µM.
In the case of `CC(=O)c1ccc(NC(=O)Cn2c(=O)c(CNc3ccc(C)cc3)cc3cc4c(cc32)OCCO4)cc1` [Compound 2DC] it was over 20 µM; in that of `COc1ccc2cc(CNc3ccccc3)c(=O)n(CC(=O)Nc3ccccc3F)c2c1` [Compound 2DD], over 20 µM; in that of `CCc1ccc(NCc2cc3cc(OC)c(OC)cc3n(CC(=O)Nc3cccc(C)c3)c2=O)cc1` [Compound 2DE], over 20 µM.
As to `COc1ccc2cc(CNc3ccc(C)cc3)c(=O)n(CC(=O)Nc3ccc(F)cc3F)c2c1` [Compound 2DF], the IC50 was over 20 µM.
In the case of `Cc1ccc(NCc2cc3cc4c(cc3n(CC(=O)Nc3cccc(C)c3)c2=O)OCCO4)cc1` [Compound 2DG] it was over 20 µM; in that of `COc1ccc(NC(=O)Cn2c(=O)c(CNc3ccccc3)cc3ccc(OC)cc32)cc1` [Compound 2DH], over 20 µM.
Take `COc1cc2cc(CNc3ccc(C)cc3)c(=O)n(CC(=O)Nc3ccc(C)c(C)c3)c2cc1OC` [Compound 2DI]: the IC50 is over 20 µM.
As for `COc1cc2cc(CNc3ccc(C)cc3)c(=O)n(CC(=O)Nc3cc(C)cc(C)c3)c2cc1OC` [Compound 2DJ], the IC50 is over 20 µM.
Next, `CCc1ccc(NCc2cc3cc(OC)c(OC)cc3n(CC(=O)Nc3ccccc3C)c2=O)cc1` [Compound 2DK]: over 20 µM; `CCc1ccc(NC(=O)Cn2c(=O)c(CNc3ccc(OC)cc3)cc3ccc(OC)cc32)cc1` [Compound 2DL]: over 20 µM; `COc1ccc2cc(CNc3ccccc3)c(=O)n(CC(=O)Nc3ccccc3)c2c1` [Compound 2DM]: over 20 µM.
Take `COc1ccc2cc(CNc3ccc(C)cc3)c(=O)n(CC(=O)Nc3cccc(F)c3)c2c1` [Compound 2DN]: the IC50 was over 20 µM.
For the compound `COc1ccc(NC(=O)Cn2c(=O)c(CNc3ccccc3)cc3cc(OC)c(OC)cc32)cc1` [Compound 2DO], the IC50 was over 20 µM.
On to `COc1cc2cc(CNc3ccccc3)c(=O)n(CC(=O)Nc3cc(Cl)ccc3C)c2cc1OC` [Compound 2DP], for which the IC50 was over 20 µM.
In the case of `CCc1ccc(NCc2cc3ccc(OC)cc3n(CC(=O)NCc3ccc(C)cc3)c2=O)cc1` [Compound 2DQ] it was over 20 µM.
In the case of `COc1ccc2cc(CNc3ccc(C)cc3)c(=O)n(CC(=O)Nc3ccc(C)c(Cl)c3)c2c1` [Compound 2DR] it was over 20 µM.
